Data as given in ChEMBL document CHEMBL6120940, “Discovery of N-Aryl-N'-[4-(aryloxy)cyclohexyl]squaramide-Based Inhibitors of LXR/SREBP-1c Signaling Pathway Ameliorating Steatotic Liver Disease: Navigating the Role of SIRT6 Activation” (J Med Chem, 2024).
Activity calls are given as the source filed them. The calls are words filed in the database; no cut-off is given here.

Columns and labels:
[1] = Volume of distribution at steady state in 16 hrs fasted ICR mouse at 2 mg/kg, iv measured upto 8 hrs by LC-MS/MS analysis; type: ADME, organism-based; details: in vivo, read-out: Vdss
[2] = Stability in rat plasma measured after 120 mins by LC-MS/MS analysis; type: ADME, cell-free; details: read-out: Stability
[3] = target: NAD-dependent protein deacylase sirtuin-6 (Homo sapiens) (UniProt Q8N6T7); assay: Activation of recombinant SIRT6 (unknown origin) using fluoro-substrate peptide as substrate at 2.5 to 400 uM by fluorescence based analysis; details: filed as activator, dose 2.5-400 µM
[4] = AUC last in 16 hrs fasted ICR mouse at 2 mg/kg, iv measured upto 8 hrs by LC-MS/MS analysis; type: ADME, organism-based; details: in vivo
[5] = Oral bioavailability in 16 hrs fasted ICR mouse at 20 mg/kg measured upto 8 hrs by LC-MS/MS analysis; type: ADME, organism-based; details: in vivo
[6] = (§1) Downregulation of SREBP-1c mRNA expression in human HepG2 cells pretreated with compound for 30 mins followed by T0901317 addition and measured after 12 hrs by RT-qPCR analysis; type: functional, cell-based
HepG2 [7] = assay: as §1; type: functional, cell-based; details: dose 0.01-100 µM, time 12.5 hrs
[8] = target: T1, Oxysterols receptor LXR-alpha (Homo sapiens) (UniProt Q13133); assay: Inhibition of LXRalpha in HEK293 cells expressing LXRE at 2.5 to 5 uM preincubated for 30 mins followed by T0901317 addition and measured after 24 hrs by Dual-glo luciferase assay; type: cell-based; details: dose 2.5-5 µM, time 24.5 hrs
T1 sequence (whole entry): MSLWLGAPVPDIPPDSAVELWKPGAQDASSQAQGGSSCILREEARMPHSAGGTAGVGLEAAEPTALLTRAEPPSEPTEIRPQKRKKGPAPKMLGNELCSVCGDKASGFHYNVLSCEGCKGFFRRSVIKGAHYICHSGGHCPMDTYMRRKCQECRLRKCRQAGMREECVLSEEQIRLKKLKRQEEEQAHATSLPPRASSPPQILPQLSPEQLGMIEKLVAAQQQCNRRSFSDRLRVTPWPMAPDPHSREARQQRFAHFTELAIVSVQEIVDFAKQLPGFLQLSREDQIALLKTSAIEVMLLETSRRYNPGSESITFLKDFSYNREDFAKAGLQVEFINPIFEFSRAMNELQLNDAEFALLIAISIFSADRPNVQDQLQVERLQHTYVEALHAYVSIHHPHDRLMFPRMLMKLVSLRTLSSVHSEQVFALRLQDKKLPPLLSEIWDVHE

HepG2 [9] = assay: Downregulation of SREBP-1c expression level in human HepG2 cells at 5 to 10 uM pretreated with compound for 30 mins followed by GW3965 addition and measured after 12 hrs by RT-qPCR analysis; type: functional, cell-based; details: dose 5-10 µM, time 12.5 hrs
HepG2 [10] = assay: Lipid lowering effect on palmitic acid induced lipid accumulation in human HepG2 cells at 5 uM incubated for 30 mins by Oil red O staining based analysis; type: functional, cell-based
Mus musculus = assay: Anti-lipogenic activity against high fat died induced male C57BL/6J mouse obesity model assessed as reduction in liver weight at 15 mg/kg, po administered three times per week and measured for 5 weeks; type: functional, organism-based
HepG2 [11] = assay: Downregulation of SREBP-1 level in human HepG2 cells transfected with SIRT6 SiRNA at 10 uM preincubated for 30 mins followed by T0901317 addition and measured after 12 hrs; type: functional, cell-based; details: time 12.5 hrs
[12] = target: T1, Oxysterols receptor LXR-alpha (Homo sapiens); assay: Inhibition of LXRalpha in human HepG2 cells expressing LXRE at 2.5 to 5 uM preincubated for 30 mins followed by T0901317 addition and measured after 24 hrs by Dual-glo luciferase assay; type: cell-based; details: dose 2.5-5 µM, time 24.5 hrs
HepG2 [13] = assay: Downregulation of acetylated histone H3K9 level in human HepG2 cells at 5 to 10 uM preincubated for 30 mins followed by OSS128167 addition and measured after 12 hrs; type: functional, cell-based; details: dose 5-10 µM, time 12.5 hrs
Hepatocyte = assay: Inhibition of Scd level in mouse hepatocyte at 10 uM preincubated with compound for 30 mins followed by T0901317 addition and measured after 12 hrs; type: functional, cell-based; details: time 12.5 hrs
[14] = AUC infinity in 16 hrs fasted ICR mouse at 2 mg/kg, iv measured upto 8 hrs by LC-MS/MS analysis; type: ADME, organism-based; details: in vivo
[15] = AUC last in 16 hrs fasted ICR mouse at 20 mg/kg, po measured upto 8 hrs by LC-MS/MS analysis; type: ADME, organism-based; details: in vivo
AML12 = assay: Downregulation of SREBP-1c expression level in mouse AML12 cells at 10 uM pretreated with compound for 30 mins followed by T0901317 addition and measured after 12 hrs by RT-qPCR analysis; type: functional, cell-based; details: time 12.5 hrs
HepG2 [16] = assay: Downregulation of SREBP-1c expression level in nucleus of human HepG2 cells at 10 uM pretreated with compound for 30 mins followed by GW3965 addition and measured after 12 hrs by immunoblot analysis; type: functional, cell-based; details: time 12.5 hrs
HepG2 [17] = assay: Downregulation of SREBP-1c expression level in human HepG2 cells pretreated with compound for 30 mins followed by T0901317 addition and measured after 12 hrs by RT-qPCR analysis; type: functional, cell-based; details: dose 5-10 µM, time 12.5 hrs
CYP1A2 = target: T2, CYP1A2 (Homo sapiens, UniProt P05177); assay: Inhibition of CYP1A2 in human liver microsomes at 10 uM using phenacetin as substrate preincubated for 5 mins followed by NADPH generating system addition and measured after 15 mins relative to control; type: ADME, Microsome; details: probe phenacetin, time 20 min
T2 sequence (P05177 whole entry): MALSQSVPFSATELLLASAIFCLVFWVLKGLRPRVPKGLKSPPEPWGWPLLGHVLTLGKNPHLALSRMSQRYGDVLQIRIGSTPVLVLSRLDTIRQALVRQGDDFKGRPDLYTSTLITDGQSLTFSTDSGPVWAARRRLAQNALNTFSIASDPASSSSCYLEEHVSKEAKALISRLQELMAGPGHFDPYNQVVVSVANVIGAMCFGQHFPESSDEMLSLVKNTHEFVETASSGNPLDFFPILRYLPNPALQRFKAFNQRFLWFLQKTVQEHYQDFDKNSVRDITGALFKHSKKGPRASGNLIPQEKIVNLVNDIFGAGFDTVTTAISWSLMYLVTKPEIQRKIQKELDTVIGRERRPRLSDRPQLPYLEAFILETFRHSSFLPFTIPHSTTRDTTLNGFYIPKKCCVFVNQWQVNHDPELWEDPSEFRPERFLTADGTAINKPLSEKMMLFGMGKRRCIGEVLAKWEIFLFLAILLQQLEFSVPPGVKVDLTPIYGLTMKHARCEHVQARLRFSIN

HepG2 [18] = assay: Downregulation of acetylated histone H3K9 level in human HepG2 cells preincubated for 30 mins followed by GW3965 addition and measured after 12 hrs; type: functional, cell-based; details: dose 5-10 µM, time 12.5 hrs

Sequence of NAD-dependent protein deacylase sirtuin-6 (Homo sapiens) (Q8N6T7 whole entry): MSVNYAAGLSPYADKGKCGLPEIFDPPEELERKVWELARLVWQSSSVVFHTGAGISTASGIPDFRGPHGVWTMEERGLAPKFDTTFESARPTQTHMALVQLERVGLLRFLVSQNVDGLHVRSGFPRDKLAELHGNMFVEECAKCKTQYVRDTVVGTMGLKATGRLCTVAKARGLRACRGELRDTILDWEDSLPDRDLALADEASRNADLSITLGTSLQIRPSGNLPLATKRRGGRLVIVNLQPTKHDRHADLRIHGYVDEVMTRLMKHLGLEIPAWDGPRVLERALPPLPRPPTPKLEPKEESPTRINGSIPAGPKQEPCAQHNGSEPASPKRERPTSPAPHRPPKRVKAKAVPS

## COc1ccccc1Nc1c(N[C@H]2CC[C@H](Oc3ccc([N+](=O)[O-])cc3)CC2)c(=O)c1=O
[1]
  Vd: 1.1 L/kg
[2]
  remaining at 2 h: 96.2%
[3]
  Activity: Active
[4]
  AUC(0-t) at 8 h: 2370 ng·h/mL
[5]
  bioavailability: 11.2%
[6]
  IC50: 2500 nM
HepG2 [7]
  Activity: Dose-dependent-effect
[8]
  inhibition: Active
HepG2 [9]
  Activity: Active
HepG2 [10]
  Activity: Active
Mus musculus
  Activity: Active
HepG2 [11]
  Activity: inactive
[12]
  inhibition: Active
HepG2 [13]
  Activity: inactive
Hepatocyte
  inhibition: Active
[14]
  AUC(0-inf): 2400 ng·h/mL
[15]
  AUC(0-t) at 8 h: 2820 ng·h/mL
AML12
  Activity: Active
HepG2 [16]
  Activity: Active
HepG2 [17]
  Activity: Dose-dependent-effect
CYP1A2
  inhibition at 0.25 h, 10 µM: 98%
HepG2 [18]
  Activity: Dose-dependent-effect
